# According to US20230115274A1, “COMPOUNDS AND COMPOSITIONS FOR TREATING CONDITIONS ASSOCIATED WITH STING ACTIVITY” (IFM Due, Inc., priority 2019, published 2023):
# Target: T1, hSTING (Homo sapiens, UniProt Q86WV6, G230A/H232R/R293Q/R71H)
# T1 construct: host or cells: THP1-Dual KO-IFNAR2 cells
# Assay: STING reporter assay (luciferase) in THP1-Dual KO-IFNAR2 cells stimulated with 2′3′cGAMP
# Assay type: cell-based
# Conditions: 2′3′cGAMP 15 μM, 24 h, class symbols
# Method: STING pathway activation by the compounds described herein was measured using THP1-Dual™ cells (KO-IFNAR2).
# THP1-Dual™ KO-IFNAR2 Cells (obtained from invivogen) were maintained in RPMI, 10% FCS, 5 ml P/S, 2 mM L-glut, 10 mM Hepes, and 1 mM sodium pyruvate. Compounds were spotted in empty 384 well tissue culture plates (Greiner 781182) by Echo for a final concentration of 0.0017-100 μM. Cells were plated into the TC plates at […], 2×10E6 cells/mL. For activation with STING ligand, 2′3′cGAMP (MW 718.38, obtained from Invivogen), was prepared in Optimem media.
# The following solutions were prepared for each 1×384 plate: • Solution A: 2 mL Optimem with one of the following stimuli: • […] • Solution B: 2 mL Optimem with 60 μL Lipofectamine 2000->Incubate 5 min at RT
# 2 mL of solution A and 2 ml Solution B was mixed and incubated for 20 min at room temperature (RT). 20 uL of transfection solution (A+B) was added on top of the plated cells, with a final 2′3′cGAMP concentration of 15 μM. The plates were then centrifuged immediately at 340 g for 1 minute, after which they were incubated at 37° C., 5% CO2, >98% humidity for 24 h. Luciferase reporter activity was then measured. EC50 values were calculated by using standard methods known in the art.
# Luciferase reporter assay: 10 μL of supernatant from the assay was transferred to white 384-plate with flat bottom and squared wells. One pouch of QUANTI-Luc™ Plus was dissolved in 25 mL of water. 100 μL of QLC Stabilizer per 25 mL of QUANTI-Luc™ Plus solution was added. 50 μL of QUANTI-Luc™ Plus/QLC solution per well was then added. Luminescence was measured on a Platereader (e.g., Spectramax I3X (Molecular Devices GF3637001)).
# Luciferase reporter activity was then measured. EC50 values were calculated by using standard methods known in the art.
# T1 sequence (Q86WV6 whole entry R71H/G230A/H232R/R293Q): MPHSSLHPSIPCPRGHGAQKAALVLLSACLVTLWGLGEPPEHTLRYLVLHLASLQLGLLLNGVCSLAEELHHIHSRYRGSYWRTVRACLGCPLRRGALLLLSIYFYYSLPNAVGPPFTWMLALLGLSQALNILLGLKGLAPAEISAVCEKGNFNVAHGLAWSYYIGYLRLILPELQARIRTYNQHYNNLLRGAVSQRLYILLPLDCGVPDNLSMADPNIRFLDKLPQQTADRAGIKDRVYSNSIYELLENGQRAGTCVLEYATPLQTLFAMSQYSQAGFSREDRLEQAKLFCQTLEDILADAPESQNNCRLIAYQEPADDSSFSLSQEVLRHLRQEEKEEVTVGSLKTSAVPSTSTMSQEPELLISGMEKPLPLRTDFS
row,SMILES,EC50
1,"COc1cc(NC(=O)Nc2c[nH]c3ncc(F)cc23)ncc1C1CCC(F)(F)CC1 [Compound 160, 1-(5-(4,4-difluorocyclohexyl)-4-methoxypyridin-2-yl)-3-(5-fluoro-1H-pyrrolo[2,3-b]pyridin-3-yl)urea]",200 to 1000 nM
2,"O=C(Nc1ccc(C2CC(F)(F)C2)nc1)Nc1c[nH]c2ncc(F)cc12 [Compound 161, 1-(6-(3,3-difluorocyclobutyl)pyridin-3-yl)-3-(5-fluoro-1H-pyrrolo[2,3-b]pyridin-3-yl)urea]",1000 to 5000 nM
3,"Cc1cc(NC(=O)Nc2c[nH]c3ncc(F)cc23)cnc1N1CC2(C1)CC(F)(F)C2 [Compound 162, 1-(6-(6,6-difluoro-2-azaspiro[3.3]heptan-2-yl)-5-methylpyridin-3-yl)-3-(5-fluoro-1H-pyrrolo[2,3-b]pyridin-3-yl)urea]",200 to 1000 nM
4,"CCc1cc(NC(=O)Nc2c[nH]c3ncc(F)cc23)cnc1N1CCC(F)(F)CC1 [Compound 163, 1-(6-(4,4-difluoropiperidin-1-yl)-5-ethylpyridin-3-yl)-3-(5-fluoro-1H-pyrrolo[2,3-b]pyridin-3-yl)urea]",200 to 1000 nM
5,"COc1cc(NC(=O)Nc2c[nH]c3ncc(F)cc23)cnc1C1CCC(F)(F)CC1 [Compound 164, 1-(6-(4,4-difluorocyclohexyl)-5-methoxypyridin-3-yl)-3-(5-fluoro-1H-pyrrolo[2,3-b]pyridin-3-yl)urea]",200 to 1000 nM
6,"COc1cc(NC(=O)Nc2c[nH]c3ncc(F)cc23)cnc1N1CCC(F)(F)CC1 [Compound 165, 1-(6-(4,4-difluoropiperidin-1-yl)-5-methoxypyridin-3-yl)-3-(5-fluoro-1H-pyrrolo[2,3-b]pyridin-3-yl)urea]",200 to 1000 nM
7,"O=C(Nc1cnc(C2CC(F)(F)C2)c(Cl)c1)Nc1c[nH]c2ncc(F)cc12 [Compound 166, 1-(5-chloro-6-(3,3-difluorocyclobutyl)pyridin-3-yl)-3-(5-fluoro-1H-pyrrolo[2,3-b]pyridin-3-yl)urea]",200 to 1000 nM
8,"COc1cnc2[nH]cc(NC(=O)Nc3cnc(N4CCC(F)(F)CC4)c(C)c3)c2c1 [Compound 168, 1-(6-(4,4-difluoropiperidin-1-yl)-5-methylpyridin-3-yl)-3-(5-methoxy-1H-pyrrolo[2,3-b]pyridin-3-yl)urea]",200 to 1000 nM
9,"COc1ccc2[nH]cc(NC(=O)Nc3cnc(C4CCC(F)(F)CC4)c(C)c3)c2n1 [Compound 169, 1-(6-(4,4-difluorocyclohexyl)-5-methylpyridin-3-yl)-3-(5-methoxy-1H-pyrrolo[3,2-b]pyridin-3-yl)urea]",200 to 1000 nM
10,"Cc1cc(NC(=O)Nc2c[nH]c3ncc(F)cc23)cnc1N1CCC(C)CC1 [Compound 170, 1-(5-fluoro-1H-pyrrolo[2,3-b]pyridin-3-yl)-3-(5-methyl-6-(4-methylpiperidin-1-yl)pyridin-3-yl)urea]",200 to 1000 nM
11,"Cc1cc(NC(=O)Nc2c[nH]c3ncc(F)cc23)cnc1N1CC(F)(F)C1 [Compound 171, 1-(6-(3,3-difluoroazetidin-1-yl)-5-methylpyridin-3-yl)-3-(5-fluoro-1H-pyrrolo[2,3-b]pyridin-3-yl)urea]",200 to 1000 nM
12,"Cc1cc(NC(=O)Nc2c[nH]c3c(F)cncc23)cnc1N1CCC(F)(F)CC1 [Compound 172, 1-(6-(4,4-difluoropiperidin-1-yl)-5-methylpyridin-3-yl)-3-(7-fluoro-1H-pyrrolo[3,2-c]pyridin-3-yl)urea]",1000 to 5000 nM
13,"COc1ccc2[nH]cc(NC(=O)Nc3cnc(N4CCC(F)(F)CC4)c(C)c3)c2n1 [Compound 173, 1-(6-(4,4-difluoropiperidin-1-yl)-5-methylpyridin-3-yl)-3-(5-methoxy-1H-pyrrolo[3,2-b]pyridin-3-yl)urea]",200 to 1000 nM
14,"COc1cnc2[nH]cc(NC(=O)Nc3cnc(C4CCC(F)(F)CC4)c(C)c3)c2c1 [Compound 174, 1-(6-(4,4-difluorocyclohexyl)-5-methylpyridin-3-yl)-3-(5-methoxy-1H-pyrrolo[2,3-b]pyridin-3-yl)urea]",1000 to 5000 nM
15,"CN(C)c1ccc2[nH]cc(NC(=O)Nc3cnc(N4CCC(F)(F)CC4)c(F)c3)c2n1 [Compound 175, 1-(6-(4,4-difluoropiperidin-1-yl)-5-fluoropyridin-3-yl)-3-(5-(dimethylamino)-1H-pyrrolo[3,2-b]pyridin-3-yl)urea]",5000 to 100000 nM
16,"O=C(Nc1ccc(C2CCC(F)(F)CC2)nc1)Nc1c[nH]c2nc(Br)c(F)cc12 [Compound 180, 1-(6-bromo-5-fluoro-1H-pyrrolo[2,3-b]pyridin-3-yl)-3-(6-(4,4-difluorocyclohexyl)pyridin-3-yl)urea]",5000 to 100000 nM
17,"COc1cnc2[nH]cc(NC(=O)Nc3cnc(N4CCC(F)(F)CC4)c(Cl)c3)c2c1 [Compound 181, 1-(5-chloro-6-(4,4-difluoropiperidin-1-yl)pyridin-3-yl)-3-(5-methoxy-1H-pyrrolo[2,3-b]pyridin-3-yl)urea]",200 to 1000 nM
18,"O=C(Nc1ccc(C2CCC(F)(F)CC2)nc1)Nc1c[nH]c2ncc(F)c(Br)c12 [Compound 182, 1-(4-bromo-5-fluoro-1H-pyrrolo[2,3-b]pyridin-3-yl)-3-(6-(4,4-difluorocyclohexyl)pyridin-3-yl)urea]",5000 to 100000 nM
19,"COc1cnc2[nH]cc(NC(=O)Nc3cnc(N4CCC(F)(F)CC4)c(F)c3)c2c1 [Compound 184, 1-(6-(4,4-difluoropiperidin-1-yl)-5-fluoropyridin-3-yl)-3-(5-methoxy-1H-pyrrolo[2,3-b]pyridin-3-yl)urea]",200 to 1000 nM
20,"O=C(Nc1cc(Cl)c(N2CCC(F)(F)CC2)cn1)Nc1c[nH]c2ncc(F)cc12 [Compound 186, 1-(4-chloro-5-(4,4-difluoropiperidin-1-yl)pyridin-2-yl)-3-(5-fluoro-1H-pyrrolo[2,3-b]pyridin-3-yl)urea]",200 to 1000 nM
21,"COc1ccc2[nH]cc(NC(=O)Nc3cnc(N4CCC(F)(F)CC4)c(F)c3)c2n1 [Compound 187, 1-(6-(4,4-difluoropiperidin-1-yl)-5-fluoropyridin-3-yl)-3-(5-methoxy-1H-pyrrolo[3,2-b]pyridin-3-yl)urea]",200 to 1000 nM
22,"O=C(Nc1cnc(N2CCC(F)(F)CC2)c(Cl)c1)Nc1c[nH]c2cccnc12 [Compound 188, 1-(5-chloro-6-(4,4-difluoropiperidin-1-yl)pyridin-3-yl)-3-(1H-pyrrolo[3,2-b]pyridin-3-yl)urea]",200 to 1000 nM
23,"O=C(Nc1cnc(N2CCC(F)(F)CC2)c(Cl)c1)Nc1c[nH]c2ncccc12 [Compound 189, 1-(5-chloro-6-(4,4-difluoropiperidin-1-yl)pyridin-3-yl)-3-(1H-pyrrolo[2,3-b]pyridin-3-yl)urea]",200 to 1000 nM
24,"O=C(Nc1cnc(N2CCC(F)(F)CC2)nc1)Nc1c[nH]c2ncc(F)cc12 [Compound 190, 1-(2-(4,4-difluoropiperidin-1-yl)pyrimidin-5-yl)-3-(5-fluoro-1H-pyrrolo[2,3-b]pyridin-3-yl)urea]",200 to 1000 nM

# Same assay, conditions: 2′3′cGAMP 15 μM, 24 h, numeric bounds
row,SMILES,EC50
1,"Cc1cc(NC(=O)Nc2c[nH]c3ncc(F)cc23)cnc1N1CC2(COC2)C1 [Compound 159, 1-(5-fluoro-1H-pyrrolo[2,3-b]pyridin-3-yl)-3-(5-methyl-6-(2-oxa-6-azaspiro[3.3]heptan-6-yl)pyridin-3-yl)urea]",> 30000 nM
2,"Cc1cc(NC(=O)Nc2c[nH]c3ncc(F)cc23)cnc1N1CCOCC1 [Compound 167, 1-(5-fluoro-1H-pyrrolo[2,3-b]pyridin-3-yl)-3-(5-methyl-6-morpholinopyridin-3-yl)urea]",> 30000 nM
3,"Cc1cc(N2CCC(F)(F)CC2)cnc1NC(=O)Nc1c[nH]c2ncc(F)cc12 [Compound 177, 1-(5-(4,4-difluoropiperidin-1-yl)-3-methylpyridin-2-yl)-3-(5-fluoro-1H-pyrrolo[2,3-b]pyridin-3-yl)urea]",> 30000 nM
4,"O=C(Nc1ncc(N2CCC(F)(F)CC2)cc1Cl)Nc1c[nH]c2ncc(F)cc12 [Compound 178, 1-(3-chloro-5-(4,4-difluoropiperidin-1-yl)pyridin-2-yl)-3-(5-fluoro-1H-pyrrolo[2,3-b]pyridin-3-yl)urea]",> 30000 nM
5,"Cc1cc(N2CCC(F)(F)CC2)ncc1NC(=O)Nc1c[nH]c2nccc(C)c12 [Compound 179, 1-(6-(4,4-difluoropiperidin-1-yl)-4-methylpyridin-3-yl)-3-(4-methyl-1H-pyrrolo[2,3-b]pyridin-3-yl)urea]",> 30000 nM
6,"O=C(Nc1cnc(N2CCC(F)(F)CC2)cc1Cl)Nc1c[nH]c2ncc(F)cc12 [Compound 183, 1-(4-chloro-6-(4,4-difluoropiperidin-1-yl)pyridin-3-yl)-3-(5-fluoro-1H-pyrrolo[2,3-b]pyridin-3-yl)urea]",> 30000 nM
7,"Cc1cc(N2CCC(F)(F)CC2)ncc1NC(=O)Nc1c[nH]c2ncc(F)cc12 [Compound 185, 1-(6-(4,4-difluoropiperidin-1-yl)-4-methylpyridin-3-yl)-3-(5-fluoro-1H-pyrrolo[2,3-b]pyridin-3-yl)urea]",> 30000 nM
